Measurements published in US8486990B2, “SirT inhibitors that bind to NAD” (Elixir Pharmaceuticals, Inc., priority 2003, dated 2013).
“Also recorded” adds a separate entry of the source.

How the values were obtained:
Assay type in all cases: cell-based
yeast sir2 = biological target: T1, yeast sir2 (Saccharomyces cerevisiae, UniProt P06700); test: yeast silencing assay (strain SL8c, URA at the telomere, 5FOA growth); settings: SD+0.1% 5FOA, 30° C., 18-24 hrs
T1 construct: endogenous in cells; host or cells: yeast strain SL8c (URA at the telomere)
Experimental: Strain SL8c (URA at the telomere) was used for yeast based assay to screen compounds. Cells were grown in -URA media to select de-silenced cells. The next day cells were diluted 1:20 into fresh YPD with 2% glucose then grow for 5 hrs. Cells were then diluted OD=0.01 in both SD and SD+0.1% 5FOA media. The compounds were then serially diluted into 10 ul of SD or SD+0.1% 5FOA medium. 140 ul of cells were pipetted into a 96 well plate and grown at 30° C. for 18-24 hrs.

[1] = test system: acetylated p53 (at lysine 382) in NCI-H460 cells; test: p53 acetylation (lysine 382) in etoposide-treated NCI-H460 cells, Western blot; settings: for acetylation of p53 (lysine 382) by enantiomers: 6 hours, 20 micromolar etoposide, immunoprecipitation of p53
HeLa cell = test: HeLa apoptosis assay (Cell Death Detection ELISA plus kit)
Experimental: The following exemplary compounds were evaluated for their effect on a HeLa cell apoptosis assay using the Cell Death Detection ELISA plus kit from Roche Applied Science.

NCI-H460 cells [2] = test: thymidine incorporation with etoposide and compound (cytostar plates); settings: NCI-H460, 1 micromolar compound, added concurrent to, prior to, and after etoposide
Experimental: Thymidine incorporation was measured at 24 hours intervals.

GFP-hSIRT2 isoform 1 = biological target: T2, GFP-hSIRT2 isoform 1 (Homo sapiens, UniProt Q8IXJ6); test: acetylated tubulin staining in HeLa cells transfected with GFP-hSIRT2; settings: 1 μM TSA, 50 μM compound
T2 sequence (Q8IXJ6 1-389): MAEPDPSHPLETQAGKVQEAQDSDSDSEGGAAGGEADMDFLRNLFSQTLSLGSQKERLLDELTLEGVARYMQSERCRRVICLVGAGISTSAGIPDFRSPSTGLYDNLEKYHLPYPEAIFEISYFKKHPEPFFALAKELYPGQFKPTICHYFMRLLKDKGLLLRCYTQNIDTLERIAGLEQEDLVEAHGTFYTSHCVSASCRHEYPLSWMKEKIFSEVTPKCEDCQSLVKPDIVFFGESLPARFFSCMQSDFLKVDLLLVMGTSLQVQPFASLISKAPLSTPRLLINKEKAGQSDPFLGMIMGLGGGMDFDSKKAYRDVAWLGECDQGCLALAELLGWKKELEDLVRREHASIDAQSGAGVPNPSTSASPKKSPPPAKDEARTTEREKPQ
Excerpt: HeLa cells were transfected with GFP-hSIRT2 isoform 1 (green). […] The next morning cells were fixed, permeabilized, and stained for acetylated tubulin (red).

[3] = test system: acetylated lysine 382 of p53 in U20S cells; test: p53 acetylation (lysine 382) in etoposide-treated U20S cells; settings: 20 micromolar etoposide, 6 hours
NCI-H460 cells [4] = test: cell survival after DNA damage with etoposide; settings: NCI-H460, varying concentrations of etoposide
Excerpt: NCI-H460 cells were damaged with varying concentrations of etoposide in the presence or absence of SIRT1 inhibitors.

p27 in HEK293 cells = test: p27 protein immunoblot in serum starved HEK293 cells; settings: HEK293, serum starved 24 hrs
[5] = test system: acetylated lysine 382 of p53 in MCF7 cells; test: p53 acetylation (lysine 382) in etoposide-treated MCF7 cells; settings: MCF7, 20 micromolar etoposide, 6 hours

T1 sequence (P06700 whole entry): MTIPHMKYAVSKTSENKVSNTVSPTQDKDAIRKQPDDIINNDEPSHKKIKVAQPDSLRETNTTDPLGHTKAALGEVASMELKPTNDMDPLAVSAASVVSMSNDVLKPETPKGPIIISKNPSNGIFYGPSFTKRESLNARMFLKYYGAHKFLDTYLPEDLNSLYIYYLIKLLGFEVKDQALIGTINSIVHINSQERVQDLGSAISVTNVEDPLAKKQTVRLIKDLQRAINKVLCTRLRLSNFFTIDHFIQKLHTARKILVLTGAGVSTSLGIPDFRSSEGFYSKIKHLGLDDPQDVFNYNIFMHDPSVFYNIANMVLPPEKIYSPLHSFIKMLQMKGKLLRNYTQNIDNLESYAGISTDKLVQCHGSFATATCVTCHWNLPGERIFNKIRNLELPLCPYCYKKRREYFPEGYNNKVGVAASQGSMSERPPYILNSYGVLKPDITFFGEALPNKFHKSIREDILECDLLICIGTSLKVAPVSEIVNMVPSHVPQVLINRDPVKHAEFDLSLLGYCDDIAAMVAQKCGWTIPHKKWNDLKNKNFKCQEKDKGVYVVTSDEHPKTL

Compound	effect on yeast cell growth / silencing (yeast sir2)	acetylation of p53 (lysine 382) by enantiomers [1]	average (HeLa apoptosis, Cell Death Detection ELISA) (HeLa cell; dose 0.5 (unit not given))	average (HeLa apoptosis, Cell Death Detection ELISA) (HeLa cell; dose 2.5 (unit not given))	average (HeLa apoptosis, Cell Death Detection ELISA) (HeLa cell; dose 10 (unit not given))	average (HeLa apoptosis, Cell Death Detection ELISA) (HeLa cell; dose 25 (unit not given))	synergy with etoposide on growth characteristics (thymidine incorporation) (NCI-H460 cells [2])	tubulin acetylation in cells expressing SIRT2 (GFP-hSIRT2 isoform 1)	inhibition of SIRT1 / P53 acetylation [3]	p53 function measured as cell survival after DNA damage (NCI-H460 cells [4])	p53 acetylation (at lysine 382) after etoposide treatment ([1]; 20 uM etoposide, 1 uM and 10 uM equally effective, relative to DMSO)	serum starvation-mediated upregulation of p27 (p27 in HEK293 cells)	inhibition of SIRT1 / P53 acetylation [5]
NC(=O)C1CCCc2c1[nH]c1ccc(Cl)cc21 (single isomer, unassigned) [8(+), 6-Chloro-2,3,4,9-tetrahydro-1H-carbazole-1-carboxylic acid amide]	no effect on cell growth	does not lead to increased acetylation of p53											
NC(=O)C1CCCc2c1[nH]c1ccc(Cl)cc21 (single isomer, unassigned) [8(−), 6-Chloro-2,3,4,9-tetrahydro-1H-carbazole-1-carboxylic acid amide]	preferentially inhibits yeast sir2 relative to enantiomer 8(+); also recorded: inhibits SIRT1 and allows for expression of URA3 which blocks growth in the presence of 5-fluorouracil	significant increase in acetylation and stabilization of p53 protein											
NC(=O)C1CCCc2c1[nH]c1ccccc21 (centres unmarked) [Compound 5, 2,3,4,9-Tetrahydro-1H-carbazole-1-carboxylic acid amide]			1.00	0.97	1.07	0.91							
NC(=O)C1CCCc2c1[nH]c1ccc(Cl)cc21 (centres unmarked) [Compound 8, 6-Chloro-2,3,4,9-tetrahydro-1H-carbazole-1-carboxylic acid amide]			1.23	1.85	2.11	2.27	no synergy between etoposide and compound 8	the tubulin is more highly acetylated indicating that the effect of SIRT2 was blocked	competent to inhibit SIRT1 in a variety of cell lines with similar effects on P53 acetylation	did not modulate p53 function significantly	increase p53 acetylation significantly relative to DMSO alone	abrogation of serum starvation-mediated upregulation of the cell cycle inhibitor p27	competent to inhibit SIRT1 in a variety of cell lines with similar effects on P53 acetylation
Oc1ccc(/C=C/c2cc(O)cc(O)c2)cc1 [Resveratol, reference compound]			0.83	0.84	1.01	0.56							
